Test results published in PubChem BioAssay AID248 (DTP/NCI, 2004).
Toxic doses and inconclusive results are not listed. No stated cut-off is given here; in the data, active means T/C of 150% or more; inactive means T/C below 125%.

Tested on: L1210 leukemia ip in BDF1 mice, survival T/C
Test: NCI In Vivo Anticancer Drug Screen. Data for tumor model L1210 Leukemia (intraperitoneal) in B6D2F1 (BDF1) mice
Conditions: endpoint: mean survival time, higher = longer survival
Summary of the method: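 Read-out is survival time, reported as the treated-group measurement over the vehicle-control measurement.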

[1] = dose: 100.0 mg/kg/injection, schedule: Q01DX009 (ip), vehicle: saline with Tween-80
[2] = dose: 200.0 mg/kg/injection, schedule: Q01DX009 (ip), vehicle: saline with Tween-80
[3] = dose: 400.0 mg/kg/injection, schedule: Q01DX009 (ip), vehicle: saline with Tween-80
[4] = dose: 100.0 mg/kg/injection, schedule: Q01DX001 (ip), vehicle: saline
[5] = dose: 200.0 mg/kg/injection, schedule: Q01DX001 (ip), vehicle: saline
[6] = dose: 400.0 mg/kg/injection, schedule: Q01DX001 (ip), vehicle: saline
[7] = dose: 100.0 mg/kg/injection, schedule: Q04DX003 (ip), vehicle: Klucel (hydroxypropylcellulose) (HPC)
[8] = dose: 200.0 mg/kg/injection, schedule: Q04DX003 (ip), vehicle: Klucel (hydroxypropylcellulose) (HPC)
[9] = dose: 50.0 mg/kg/injection, schedule: Q01DX001 (ip), vehicle: Klucel (hydroxypropylcellulose) (HPC)
[10] = dose: 100.0 mg/kg/injection, schedule: Q01DX001 (ip), vehicle: Klucel (hydroxypropylcellulose) (HPC)
[11] = dose: 200.0 mg/kg/injection, schedule: Q01DX001 (ip), vehicle: Klucel (hydroxypropylcellulose) (HPC)
[12] = dose: 100.0 mg/kg/injection, schedule: Q01DX009 (ip), vehicle: Klucel (hydroxypropylcellulose) (HPC)
[13] = dose: 200.0 mg/kg/injection, schedule: Q01DX009 (ip), vehicle: Klucel (hydroxypropylcellulose) (HPC)
[14] = dose: 400.0 mg/kg/injection, schedule: Q01DX009 (ip), vehicle: Klucel (hydroxypropylcellulose) (HPC)
[15] = dose: 75.0 mg/kg/injection, schedule: Q01DX001 (ip), vehicle: saline
[16] = dose: 150.0 mg/kg/injection, schedule: Q01DX001 (ip), vehicle: saline
[17] = dose: 300.0 mg/kg/injection, schedule: Q01DX001 (ip), vehicle: saline
[18] = dose: 100.0 mg/kg/injection, schedule: Q04DX003 (ip), vehicle: saline with Tween-80
[19] = dose: 200.0 mg/kg/injection, schedule: Q04DX003 (ip), vehicle: saline with Tween-80
[20] = dose: 400.0 mg/kg/injection, schedule: Q04DX003 (ip), vehicle: saline with Tween-80

Measured: T/C

C=C(S(=O)(=O)c1ccccc1)S(=O)(=O)c1ccccc1 (tested in a mixture with another compound)
inactive: dose: 10.0 mg/kg/injection, schedule: Q04DX002 (ip), vehicle: Klucel (hydroxypropylcellulose) (HPC) 117 % of control | dose: 20.0 mg/kg/injection, schedule: Q04DX002 (ip), vehicle: Klucel (hydroxypropylcellulose) (HPC) 102 % of control | dose: 40.0 mg/kg/injection, schedule: Q04DX002 (ip), vehicle: Klucel (hydroxypropylcellulose) (HPC) 91 % of control | dose: 200.0 mg/kg/injection, schedule: Q04DX002 (ip), vehicle: Klucel (hydroxypropylcellulose) (HPC) 86 % of control

Cc1cc(/C=C\c2ccc3ccccc3[n+]2C)c(O)c2ncccc12
inactive: dose: 100.0 mg/kg/injection, schedule: Q01DX001 (ip), vehicle: carboxymethylcellulose (CMC) 110 % of control | dose: 200.0 mg/kg/injection, schedule: Q01DX001 (ip), vehicle: carboxymethylcellulose (CMC) 93 % of control

Nc1nc(N)c2c(n1)CCP(c1ccccc1)C2 (configuration not stated)
inactive: dose: 12.5 mg/kg/injection, schedule: Q04DX003 (ip), vehicle: saline with Tween-80 98 % of control | dose: 25.0 mg/kg/injection, schedule: Q04DX003 (ip), vehicle: saline with Tween-80 96 % of control | dose: 50.0 mg/kg/injection, schedule: Q04DX003 (ip), vehicle: saline with Tween-80 95 % of control

c1ccc(C2c3cc4ccccc4cc3Oc3ccc4ccccc4c32)cc1 (configuration not stated)
inactive: dose: 75.0 mg/kg/injection, schedule: Q04DX003 (ip), vehicle: other 94 % of control | dose: 300.0 mg/kg/injection, schedule: Q04DX003 (ip), vehicle: other 103 % of control

OC(CCl)COCC#Cc1ccccc1 (configuration not stated)
inactive: dose: 100.0 mg/kg/injection, schedule: Q01DX009 (ip), vehicle: saline sonified 93 % of control | dose: 100.0 mg/kg/injection, schedule: Q04DX003 (ip), vehicle: saline sonified 101 % of control | dose: 200.0 mg/kg/injection, schedule: Q01DX009 (ip), vehicle: saline sonified 96 % of control | dose: 200.0 mg/kg/injection, schedule: Q04DX003 (ip), vehicle: saline sonified 93 % of control | dose: 400.0 mg/kg/injection, schedule: Q01DX009 (ip), vehicle: saline sonified 93 % of control | dose: 400.0 mg/kg/injection, schedule: Q04DX003 (ip), vehicle: saline sonified 92 % of control

NC(=O)C1CN1Cc1ccccc1 (configuration not stated)
inactive: [1] 97 % of control | [2] 95 % of control | [3] 89 % of control

c1ccc(C[N+](Cc2ccccc2)=C2CCCCC2)cc1
inactive: dose: 50.0 mg/kg/injection, schedule: Q01DX009 (ip), vehicle: saline 92 % of control | dose: 100.0 mg/kg/injection, schedule: Q01DX009 (ip), vehicle: saline 100 % of control | dose: 100.0 mg/kg/injection, schedule: Q04DX003 (ip), vehicle: saline 98 % of control | dose: 200.0 mg/kg/injection, schedule: Q04DX003 (ip), vehicle: saline 103 % of control

c1ccc(C2SC(c3ccccc3)SC(c3ccccc3)S2)cc1 (configuration not stated)
inactive: [4] 90 % of control | [5] 88 % of control | [6] 92 % of control

CCC(C)(CC)NC(C)=O
inactive: [7] 99 % of control | [8] 103 % of control

Nc1ccc(CCCCc2ccc(Cl)cc2Cl)cc1
inactive: [9] 100 % of control | dose: 50.0 mg/kg/injection, schedule: Q01DX009 (ip), vehicle: saline with Tween-80 96 % of control | [10] 94 % of control | [1] 102 % of control | [11] 109 % of control

Cc1cc(C)c(CC(C)(CO)CO)c(C)c1CC(C)(CO)CO
inactive: [12] 107 % of control | [13] 98 % of control | [14] 96 % of control

CCCCCCCCCCCCNC(=O)OCCN(CCOC(=O)NCCCCCCCCCCCC)C(=O)COc1ccc(Cl)cc1
inactive: dose: 100.0 mg/kg/injection, schedule: Q01DX009 (ip), vehicle: other 92 % of control | dose: 200.0 mg/kg/injection, schedule: Q01DX009 (ip), vehicle: other 92 % of control | dose: 400.0 mg/kg/injection, schedule: Q01DX009 (ip), vehicle: other 96 % of control

CC1(C)OC2C3CC(C2O1)n1cnc2c(N)nc[n+](c21)C3 (configuration not stated)
inactive: [15] 120 % of control | [16] 101 % of control | [17] 106 % of control

ClC(Cl)(Cl)C1OCCCO1
inactive: [4] 97 % of control | [5] 107 % of control | [6] 103 % of control

Cc1ccc(NC(=O)Oc2cc(C)ccc2C(C)C)cc1
inactive: [12] 113 % of control | [13] 94 % of control | [14] 97 % of control

CCO/C=N\c1[nH]ncc1C#N
inactive: dose: 50.0 mg/kg/injection, schedule: Q01DX009 (ip), vehicle: Klucel (hydroxypropylcellulose) (HPC) 93 % of control | [12] 107 % of control | [13] 103 % of control

COc1cc(NC(=O)CC(C)=O)c(OC)cc1Cl
inactive: [18] 100 % of control | [19] 102 % of control | [20] 102 % of control

CCOC(=O)c1cc(=O)[nH]c2ccc(OC)cc12
inactive: [18] 98 % of control | [19] 102 % of control | [20] 91 % of control

O=C(CNCc1ccccc1)c1ccc(Cl)cc1
inactive: [9] 93 % of control | [10] 96 % of control | [11] 93 % of control | dose: 400.0 mg/kg/injection, schedule: Q01DX001 (ip), vehicle: Klucel (hydroxypropylcellulose) (HPC) 93 % of control

O=S(=O)(Cc1ccccc1)C(Cl)Cl
inactive: [15] 96 % of control | [16] 94 % of control | [17] 96 % of control

CC(C)CCCC(C)C1CCC2C3C(=O)C=C4CC(O)CCC4(C)C3CCC12C (configuration not stated)
inactive: dose: 100.0 mg/kg/injection, schedule: Q01DX009 (sc), vehicle: steriod suspending solution 106 % of control | dose: 100.0 mg/kg/injection, schedule: Q04DX003 (sc), vehicle: steriod suspending solution 100 % of control | dose: 200.0 mg/kg/injection, schedule: Q01DX009 (sc), vehicle: steriod suspending solution 96 % of control | dose: 200.0 mg/kg/injection, schedule: Q04DX003 (sc), vehicle: steriod suspending solution 115 % of control | dose: 400.0 mg/kg/injection, schedule: Q01DX009 (sc), vehicle: steriod suspending solution 98 % of control | dose: 400.0 mg/kg/injection, schedule: Q04DX003 (sc), vehicle: steriod suspending solution 107 % of control

CCOC(=O)c1ccc(NC(=O)Oc2cc(C)c(Cl)c(C)c2)cc1
inactive: [12] 95 % of control | [13] 90 % of control | [14] 96 % of control

O=C(O)C1CCC=CC1c1ccccc1 (configuration not stated)
inactive: dose: 100.0 mg/kg/injection, schedule: Q01DX005 (ip), vehicle: saline with Tween-80 101 % of control | [1] 96 % of control | dose: 200.0 mg/kg/injection, schedule: Q01DX005 (ip), vehicle: saline with Tween-80 101 % of control | [2] 110 % of control | dose: 400.0 mg/kg/injection, schedule: Q01DX005 (ip), vehicle: saline with Tween-80 116 % of control | [3] 110 % of control

O=C(Nc1ccccc1F)C(c1ccccc1)c1ccccc1
inactive: [12] 103 % of control | [7] 96 % of control | [13] 93 % of control | [8] 95 % of control | [14] 94 % of control | dose: 400.0 mg/kg/injection, schedule: Q04DX003 (ip), vehicle: Klucel (hydroxypropylcellulose) (HPC) 95 % of control

NC1CCc2ccccc2-c2ccccc21 (configuration not stated)
inactive: dose: 10.0 mg/kg/injection, schedule: Q01DX001 (ip), vehicle: saline 101 % of control | dose: 20.0 mg/kg/injection, schedule: Q01DX001 (ip), vehicle: saline 108 % of control | dose: 40.0 mg/kg/injection, schedule: Q01DX001 (ip), vehicle: saline 101 % of control

Nc1ccc(CC(=O)NC(CCC(=O)O)C(=O)O)cc1 (configuration not stated)
inactive: dose: 100.0 mg/kg/injection, schedule: Q04DX002 (ip), vehicle: saline 103 % of control | dose: 200.0 mg/kg/injection, schedule: Q04DX002 (ip), vehicle: saline 91 % of control | dose: 400.0 mg/kg/injection, schedule: Q04DX002 (ip), vehicle: saline 100 % of control
